# Assay results published in patent publication US20240358727A1, “MICROSCALE THERMOPHORESIS TO EVALUATE CHANNEL LIPID INTERACTIONS AND METHODS OF TREATING NAV CHANNELS RELATED DISEASES” (Northeastern University, priority 2023, published 2024).
# Entries after “also recorded” stand apart in the source; their conditions may differ.
# Tests used:
# [1] = biological target: T1, Nav1.5 (Homo sapiens, UniProt Q14524); assay: Whole-cell patch clamp of Nav1.5 stable cells with optogenetic PI-phosphatases and diC8PI(4,5)P2 in the pipette; assay type: cell-based; details: for left shift in the I-V relationship / shift in V½SSI / shift in V½act / V½SSI / V½act: 200 μM diC8PI(4,5)P2; for current density: 200 μM diC8PI(4,5)P2, −55 mV; for τinact / ILATE: diC8PI(4,5)P2; for ILATE: % of Ipeak
# T1 construct: expressed in transfected cells
# Protocol: Nav1.5 channels were studied with Navβ1 (SCNIB, isoform b; NM_001037) in pRAT, a CMV driven vector. N-terminal CRY2-tagged pseudojanin in pMaX(+) vector was generated by Genscript (Piscataway, NY). Purified diC8PI(4,5)P2 was purchased from Echelon Biosciences.
# HEK293-T cells were purchased from American Type Culture Collection (ATCC, catalog no. CRL-3216). The cells were cultured in 60-mm dishes in Dulbecco's Modified Eagle Medium (DMEM) (Sigma-Aldrich) that was supplemented with a combination of 100 units/ml of penicillin, 100 μg/ml of streptomycin and 10% Fetal Bovine Serum (FBS). Stable cells were cultured in previously mentioned DMEM, penicillin, streptomycin, and FBS medium with addition of 2 μg/ml puromycin, 5 μg/ml blasticidin, 200 μg/ml geneticin (G418). Both cell lines were incubated at 5% CO2 at 37° C. 24 hours before transfection cells from either cell lines were seeded on glass coverslips in 35-mm dishes. Both cell lines were transfected in OptiMEM using polyethyleneimine (PEI) at a 1 μg of DNA: 4 μL PEI to 1 μg of DNA: 6 μL PEI ratio for 2-4 hours. HEK293-T cells were transfected with 1.5 μg of channel DNA and 1 μg of the beta subunit alone and alongside light-activated constructs. Stable cells were transfected with 1p g of the beta subunit alone and alongside light-activated constructs. Electrophysiology recordings were performed within 24-48 hours after transfection at room temperature.
# Both the HEK293-T, and Nav1.5 stable cells were studied under whole-cell patch clamp. Sodium currents were recorded using the Tecella Pico-2 amplifier (Tecella) and WinWCP software (University of Strathclyde) at a low pass (Bessel) filter of 9 kHz and sampled at 50 kHz frequencies. The borosilicate glass (Clark Kent) patch pipettes were pulled to a resistance of 2-4 MQ using the vertical puller (Narishige) when filled with internal solution. The internal solution contained (in mM): 60 CsCl, 80 CsF, 2 MgCl2·6H2O, 10 EGTA, 5 HEPES, 5 Na2ATP, pH 7.4 with CsOH. Cells were perfused through a multichannel gravity-driven perfusion manifold (Warner) with an extracellular solution containing (in mM): 130 NaCl, 5 CsCl, 1.2 MgCl2·6H2O, 1.5 CaCl2), 8 Glucose, 10 HEPES. Cells with a series resistance less than 15 MQ were studied.
# Current-voltage relationships were evoked by a 250-ms test pulse between −80 mV to 35 mV, in 5 mV increments. Steady-state inactivation was studied by holding cells at −120 mV and then comparing currents that were evoked by a 50 ms test pulse between −120 mV and −20 mV to those evoked by a 500 ms pre-pulse to 30 mV, in 10 mV increments. Normalized peak currents were then plotted against pre-pulse potential (mV). To determine voltage-dependence, the data was normalized and plotted against the driving force and fitted to a Boltzmann function, I=Imax(1+exp[V−V1/2/k]), where Imax is maximum current and k is the slope factor to generate normalized conductance-voltage (G-V) relationship. The ILATE was evoked by a single test pulse between −90 mV and −20 mV. ILATE was calculated from the last 10 ms of this 250 ms test pulse. From this recording protocol, the time constant for inactivation (T) was determined from a mono-exponential fit of normalized current amplitude using It=Imax+A [e^−t/τ], A is amplitude and t is time. All whole-cell currents were normalized to the capacitance of cell.
# Experiments were set up similar to those in Gada et al (2023). Optogenetic studies were conducted simultaneously alongside patch-clamp. Here the photoactivation of cells was conducted in the epifluorescence-mode to utilize continuous excitation from a broad-spectrum LED (Excelitas) through a 448/20 nm filter (Chroma), via a 20× objective lens (Olympus). A photometer (ThorLabs) was used to measure the light output which measured at 50 mW/cm^2. […]
# [2] = biological target: T2, Nav1.5-K1493E (Homo sapiens, UniProt Q14524, K1493E); assay: Whole-cell ILATE of Nav1.5-K1493E with CRY2-5ptase; assay type: cell-based; details: 200 μM diC8-PI(4,5)P2 in pipette
# T2 construct: expressed in transfected cells; HEK293T
# Text: FIGS. 31A-31D show representative currents from Nav1.5-K1493E showing enhanced ILATE that is further augmented by activation of CRY2-5ptase.
# Multiple dysrhythmic disorders are associated with mutations in Nav1.5. Nav1.5-E1784K is the most common variant and is associated with LQT3, BrS, and sinus node dysfunction. E1784K is in the proximal C-terminal domain where it disrupts an interaction with K1493 (DIII-DIV linker) that alters channel gating and increases ILATE. The complementary mutation, K1493E also augments ILATE. […] These findings indicate a potential role for PI(4,5)P2 in the mechanism of, at least some, Nav1.5 disease mutants.
# [3] = 200 μM diC8PI(4,5)P2 in pipette
# [4] = CRY2-5POCRL + CRY2-Sac2, BL vs control
# [5] = CRY2-5POCRL + CRY2-Sac2, control (before BL)
# [6] = CRY2-5POCRL, control (before BL)
# [7] = CRY2-5POCRL, diC8PI(4,5)P2 enriched vs BL without diC8PI(4,5)P2
smiles,measurement,setting,value
CCCCCCCC(=O)OC[C@H](COP(=O)(O)O[C@@H]1[C@H](O)[C@H](O)[C@@H](OP(=O)(O)O)[C@H](OP(=O)(O)O)[C@H]1O)OC(=O)CCCCCCC [diC8-PIP2],effect on CRY2-5POCRL (CRY2-5P) dephosphorylation effects,[1]; [3],partially opposes; also recorded: partially reverses
same,"effect on CRY2-5POCRL/Sac2 dephosphorylation effects (activation, SSI)",[1]; [3],partially opposes
same,left shift in the I-V relationship,"[1]; CRY2-5POCRL + CRY2-Sac2, BL vs before BL",−1.87 mV
same,shift in V½SSI,[1]; [4],−9.1±1.62 mV
same,shift in V½act,[1]; [4],−1.87±1.52 mV
same,V½SSI,"[1]; CRY2-5POCRL + CRY2-Sac2, BL",−80.48±1.75 mV
same,V½act,"[1]; CRY2-5POCRL + CRY2-Sac2, BL",−53.17±1.49 mV
same,current density,"[1]; CRY2-5POCRL + CRY2-Sac2, BL",−203.83±59.93 pA/pF
same,V½SSI,[1]; [5],−71.75±1.84 mV
same,V½act,[1]; [5],−51.30±1.7 mV
same,effect on changes in window current,"[1]; CRY2-5POCRL + CRY2-Sac2, diC8PI(4,5)P2",does not oppose
same,difference in V½act,"[1]; CRY2-5POCRL + CRY2-Sac2, diC8PI(4,5)P2 enriched before BL vs BL without diC8PI(4,5)P2",−6.518 mV
same,difference in V½SSI,"[1]; CRY2-5POCRL + CRY2-Sac2, diC8PI(4,5)P2 enriched vs BL without diC8PI(4,5)P2",−8.73±2.61
same,current density,"[1]; CRY2-5POCRL + CRY2-Sac2, without BL",−80.94±28.21 pA/pF
same,shift in V½SSI,"[1]; CRY2-5POCRL, BL vs control",−0.9383±2.01 mV
same,shift in V½act,"[1]; CRY2-5POCRL, BL vs control",−8.61±0.77 mV
same,V½SSI,"[1]; CRY2-5POCRL, BL",−72.13±1.53 mV
same,V½act,"[1]; CRY2-5POCRL, BL",−55.90±2.00 mV
same,left shift in the I-V relationship,"[1]; CRY2-5POCRL, BL",~8.61 mV
same,τinact,"[1]; CRY2-5POCRL, BL",1.68 ± 0.15 ms
same,ILATE,"[1]; CRY2-5POCRL, BL",0.64±0.25%
same,V½SSI,[1]; [6],−73.07±1.54 mV
same,V½act,[1]; [6],−47.29±1.77 mV
same,τinact,[1]; [6],1.24 ± 0.3 ms
same,ILATE,[1]; [6],0.08±0.025%
same,difference in V½act,"[1]; CRY2-5POCRL, diC8PI(4,5)P2 enriched before BL vs BL without diC8PI(4,5)P2",~6.768±2.420 mV
same,difference in ILATE,[1]; [7],2.139±0.5794
same,difference in V½SSI,[1]; [7],−6.518 mV
same,difference in τinact,[1]; [7],1.345 ± 0.3918 ms
same,effect on CRY2-PJ dephosphorylation effect on voltage-dependence of inactivation (SSI),"[1]; diC8PI(4,5)P2 enriched vs depleted",opposed; also recorded: partially opposes
same,effect on CRY2-PJ dephosphorylation effects on Nav1.5,"[1]; diC8PI(4,5)P2 in pipette",did not oppose; also recorded: does not oppose
same,effect on Nav1.5-K1493E ILATE,[2],abolishes; also recorded: opposes
same,effect on further increase in ILATE on activation of CRY2-5ptase,[2],precluded
